Measured values published in ChEMBL document CHEMBL5252613, “Discovery and anti-tumor activity of 4-(benzylamino)-6-(3,5-dimethylisoxazol-4-yl)quinolin-2(1H)-one (CG13250), a potent, selective and orally bioavailable BET bromodomain inhibitor” (Bioorg Med Chem Lett, 2023).
One block for each compound: values may come before it. Active and inactive are the calls of the source. The calls are words filed in the database; no cut-off is given here.

What was measured:
[1] = AUC(0 to t) in CD-1 mouse plasma at 10 mg/kg, sc; format: ADME, organism-based; design: dose 10 mg/kg, route sc
[2] = molecular target: Non-receptor tyrosine-protein kinase TYK2 (Homo sapiens) (UniProt P29597); assay: Inhibition of TYK2 (unknown origin) at 10 uM by DiscoverX KINOMEscan relative to control
[3] = molecular target: T1, Bromodomain-containing protein 4 (Homo sapiens, UniProt O60885); assay: Inhibition of BRD4 bromodomain 1/2 (unknown origin) assessed as dissociation constant by DiscoveRx BROMOscan assay
Kasumi 1 = assay: Antitumor activity against human Kasumi 1 cells xenografted in mouse assessed as tumor growth inhibition at 50 mg/kg, po administered once a day for 15 days starting from 25 days after transplantation relative to control; format: functional; details: Kasumi 1, 360 h, time 15 day, read-out: TGI
Peregrin (Homo sapiens) = molecular target: T2, Peregrin (Homo sapiens) (UniProt P55201); assay: Inhibition of BRPF1 (unknown origin) at 10 uM by DiscoverX BROMOscan assay
T2 sequence (whole entry): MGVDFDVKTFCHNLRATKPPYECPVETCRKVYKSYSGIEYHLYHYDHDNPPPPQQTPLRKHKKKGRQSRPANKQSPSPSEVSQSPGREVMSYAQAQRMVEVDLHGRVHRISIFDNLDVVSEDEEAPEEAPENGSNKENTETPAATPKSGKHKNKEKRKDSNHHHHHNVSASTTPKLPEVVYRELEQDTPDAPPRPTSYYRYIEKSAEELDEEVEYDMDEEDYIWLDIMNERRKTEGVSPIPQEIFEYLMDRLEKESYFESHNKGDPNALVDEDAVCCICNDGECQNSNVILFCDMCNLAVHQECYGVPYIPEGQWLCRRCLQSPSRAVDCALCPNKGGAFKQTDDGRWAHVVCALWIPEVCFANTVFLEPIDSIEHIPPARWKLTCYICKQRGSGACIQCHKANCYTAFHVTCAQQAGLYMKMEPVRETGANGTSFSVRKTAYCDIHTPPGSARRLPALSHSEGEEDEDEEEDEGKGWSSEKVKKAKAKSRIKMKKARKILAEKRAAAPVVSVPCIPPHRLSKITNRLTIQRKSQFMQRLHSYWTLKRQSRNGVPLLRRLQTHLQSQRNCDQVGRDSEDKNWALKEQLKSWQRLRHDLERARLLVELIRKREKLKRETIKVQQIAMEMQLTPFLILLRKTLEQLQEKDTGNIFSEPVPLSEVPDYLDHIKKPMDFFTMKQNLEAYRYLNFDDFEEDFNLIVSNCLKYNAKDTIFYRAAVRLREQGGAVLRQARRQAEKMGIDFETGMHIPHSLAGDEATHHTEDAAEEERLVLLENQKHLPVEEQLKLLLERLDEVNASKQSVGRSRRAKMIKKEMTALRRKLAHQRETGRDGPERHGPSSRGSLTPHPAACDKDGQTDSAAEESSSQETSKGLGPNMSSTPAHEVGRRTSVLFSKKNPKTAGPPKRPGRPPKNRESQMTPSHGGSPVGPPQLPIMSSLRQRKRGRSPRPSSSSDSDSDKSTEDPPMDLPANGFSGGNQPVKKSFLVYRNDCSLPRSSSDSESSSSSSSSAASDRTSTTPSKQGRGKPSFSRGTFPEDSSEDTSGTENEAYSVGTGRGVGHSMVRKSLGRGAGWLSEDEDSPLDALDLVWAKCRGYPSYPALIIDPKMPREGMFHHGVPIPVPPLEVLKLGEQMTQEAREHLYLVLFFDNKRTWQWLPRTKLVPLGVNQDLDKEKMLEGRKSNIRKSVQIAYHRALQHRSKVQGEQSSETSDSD

[4] = AUC(0 to t) in CD-1 mouse plasma at 50 mg/kg, po; format: ADME, organism-based; design: dose 50 mg/kg, route po
[5] = molecular target: Histone acetyltransferase p300 (Homo sapiens) (UniProt Q09472); assay: Inhibition of EP300 (unknown origin) at 10 uM by DiscoverX BROMOscan assay
[6] = Tmax in rat plasma at 50 mg/kg, po; format: ADME, organism-based
Cytochrome P450 2D6 = Cytochrome P450 2D6 (Homo sapiens, UniProt P10635); assay: Inhibition of CYP2D6 (unknown origin) by fluorescence based assay; format: ADME
Cytochrome P450 3A4 = Cytochrome P450 3A4 (Homo sapiens, UniProt P08684); assay: Inhibition of CYP3A4 (unknown origin) by fluorescence based assay; format: ADME
[7] = Tmax in CD-1 mouse brain at 50 mg/kg, po; format: ADME, organism-based
[8] = molecular target: CREB-binding protein (Homo sapiens) (UniProt Q92793); assay: Inhibition of CREBBP (unknown origin) at 10 uM by DiscoverX BROMOscan assay
[9] = Stability in human liver microsomes assessed as half-life; format: ADME, Microsome
[10] = molecular target: T1, Bromodomain-containing protein 4; assay: Inhibition of BRD4 bromodomain 1/2 (unknown origin) by Alphascreen assay
Cytochrome P450 2C19 = Cytochrome P450 2C19 (Homo sapiens, UniProt P33261); assay: Inhibition of CYP2C19 (unknown origin) by fluorescence based assay; format: ADME
[11] = Half-life in CD-1 mouse plasma at 50 mg/kg, po; format: ADME, organism-based
[12] = Half-life in CD-1 mouse brain at 50 mg/kg, po; format: ADME, organism-based
[13] = Tmax in CD-1 mouse plasma at 50 mg/kg, po; format: ADME, organism-based
[14] = Toxicity in mouse xenografted with human Kasumi 1 cells assessed as signs of toxicity at 50 mg/kg, po administered once a day for 15 days starting from 25 days after transplantation; format: organism-based; details: in vivo, 360 h, time 15 day
[15] = Stability in mouse liver microsomes assessed as half-life; format: ADME, Microsome
[16] = molecular target: T3, Bromodomain-containing protein 9 (Homo sapiens) (UniProt Q9H8M2); assay: Inhibition of BRD9 (unknown origin) at 10 uM by DiscoverX BROMOscan assay
T3 sequence (whole entry): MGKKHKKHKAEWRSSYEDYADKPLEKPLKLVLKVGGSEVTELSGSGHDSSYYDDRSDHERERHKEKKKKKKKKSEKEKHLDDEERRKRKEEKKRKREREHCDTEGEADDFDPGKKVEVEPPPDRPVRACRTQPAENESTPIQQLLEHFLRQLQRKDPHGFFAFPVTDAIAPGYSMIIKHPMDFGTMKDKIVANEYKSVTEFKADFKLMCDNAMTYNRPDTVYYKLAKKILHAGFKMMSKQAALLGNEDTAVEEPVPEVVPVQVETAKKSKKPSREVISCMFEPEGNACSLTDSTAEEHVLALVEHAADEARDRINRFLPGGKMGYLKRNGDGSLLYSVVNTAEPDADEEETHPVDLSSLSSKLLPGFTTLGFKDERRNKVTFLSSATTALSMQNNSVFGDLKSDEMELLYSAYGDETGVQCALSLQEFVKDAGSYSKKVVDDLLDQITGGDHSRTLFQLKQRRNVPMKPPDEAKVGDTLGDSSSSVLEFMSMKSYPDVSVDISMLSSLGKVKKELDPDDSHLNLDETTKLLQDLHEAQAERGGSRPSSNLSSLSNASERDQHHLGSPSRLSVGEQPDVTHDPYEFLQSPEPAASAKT

[17] = Cmax in CD-1 mouse plasma at 10 mg/kg, sc; format: ADME, organism-based; design: dose 10 mg/kg, route sc
[18] = Toxicity in mouse xenografted with human Kasumi 1 cells assessed as effect on body weight at 50 mg/kg, po administered once a day for 15 days starting from 25 days after transplantation; format: organism-based; details: in vivo, 360 h, time 15 day
[19] = Cmax in CD-1 mouse brain at 50 mg/kg, po; format: ADME, organism-based; design: dose 50 mg/kg, route po
[20] = Half-life in rat plasma at 50 mg/kg, po; format: ADME, organism-based
[21] = molecular target: Tyrosine-protein kinase JAK1 (Homo sapiens) (UniProt P23458); assay: Inhibition of JAK1 JH2 (unknown origin) at 10 uM by DiscoverX KINOMEscan relative to control
Cytochrome P450 1A2 = molecular target: T4, Cytochrome P450 1A2 (Homo sapiens, UniProt P05177); assay: Inhibition of CYP1A2 (unknown origin) by fluorescence based assay; format: ADME
T4 sequence (P05177 whole entry): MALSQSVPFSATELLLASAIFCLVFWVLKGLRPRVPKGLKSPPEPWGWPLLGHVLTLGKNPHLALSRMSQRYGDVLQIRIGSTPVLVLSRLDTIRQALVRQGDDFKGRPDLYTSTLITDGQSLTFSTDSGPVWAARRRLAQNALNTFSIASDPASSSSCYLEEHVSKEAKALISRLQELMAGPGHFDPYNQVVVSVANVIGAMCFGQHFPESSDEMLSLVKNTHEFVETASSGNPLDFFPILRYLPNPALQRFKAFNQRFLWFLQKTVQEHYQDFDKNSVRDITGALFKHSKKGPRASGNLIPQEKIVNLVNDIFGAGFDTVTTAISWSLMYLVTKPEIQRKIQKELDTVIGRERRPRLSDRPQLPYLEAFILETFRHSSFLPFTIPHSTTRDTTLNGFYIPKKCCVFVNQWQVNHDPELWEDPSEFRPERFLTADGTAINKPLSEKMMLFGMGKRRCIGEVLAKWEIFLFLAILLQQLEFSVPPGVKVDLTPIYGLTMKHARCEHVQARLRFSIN

[22] = AUC(0 to t) in rat plasma at 50 mg/kg, po; format: ADME, organism-based; design: dose 50 mg/kg, route po
[23] = Tmax in CD-1 mouse plasma at 10 mg/kg, sc; format: ADME, organism-based
[24] = Half-life in CD-1 mouse plasma at 10 mg/kg, sc; format: ADME, organism-based
MV4-11 = assay: Growth inhibition of human MV4-11 cells measured after 72 hrs; format: functional
Cytochrome P450 2C9 = Cytochrome P450 2C9 (Homo sapiens, UniProt P11712); assay: Inhibition of CYP2C9 (unknown origin) by fluorescence based assay; format: ADME
[25] = AUC(0 to t) in CD-1 mouse brain at 50 mg/kg, po; format: ADME, organism-based; design: dose 50 mg/kg, route po
[26] = Cmax in rat plasma at 50 mg/kg, po; format: ADME, organism-based; design: dose 50 mg/kg, route po
[27] = Cmax in CD-1 mouse plasma at 50 mg/kg, po; format: ADME, organism-based; design: dose 50 mg/kg, route po

CREB-binding protein (Homo sapiens), sequence (Q92793 2-2442 limits assumed): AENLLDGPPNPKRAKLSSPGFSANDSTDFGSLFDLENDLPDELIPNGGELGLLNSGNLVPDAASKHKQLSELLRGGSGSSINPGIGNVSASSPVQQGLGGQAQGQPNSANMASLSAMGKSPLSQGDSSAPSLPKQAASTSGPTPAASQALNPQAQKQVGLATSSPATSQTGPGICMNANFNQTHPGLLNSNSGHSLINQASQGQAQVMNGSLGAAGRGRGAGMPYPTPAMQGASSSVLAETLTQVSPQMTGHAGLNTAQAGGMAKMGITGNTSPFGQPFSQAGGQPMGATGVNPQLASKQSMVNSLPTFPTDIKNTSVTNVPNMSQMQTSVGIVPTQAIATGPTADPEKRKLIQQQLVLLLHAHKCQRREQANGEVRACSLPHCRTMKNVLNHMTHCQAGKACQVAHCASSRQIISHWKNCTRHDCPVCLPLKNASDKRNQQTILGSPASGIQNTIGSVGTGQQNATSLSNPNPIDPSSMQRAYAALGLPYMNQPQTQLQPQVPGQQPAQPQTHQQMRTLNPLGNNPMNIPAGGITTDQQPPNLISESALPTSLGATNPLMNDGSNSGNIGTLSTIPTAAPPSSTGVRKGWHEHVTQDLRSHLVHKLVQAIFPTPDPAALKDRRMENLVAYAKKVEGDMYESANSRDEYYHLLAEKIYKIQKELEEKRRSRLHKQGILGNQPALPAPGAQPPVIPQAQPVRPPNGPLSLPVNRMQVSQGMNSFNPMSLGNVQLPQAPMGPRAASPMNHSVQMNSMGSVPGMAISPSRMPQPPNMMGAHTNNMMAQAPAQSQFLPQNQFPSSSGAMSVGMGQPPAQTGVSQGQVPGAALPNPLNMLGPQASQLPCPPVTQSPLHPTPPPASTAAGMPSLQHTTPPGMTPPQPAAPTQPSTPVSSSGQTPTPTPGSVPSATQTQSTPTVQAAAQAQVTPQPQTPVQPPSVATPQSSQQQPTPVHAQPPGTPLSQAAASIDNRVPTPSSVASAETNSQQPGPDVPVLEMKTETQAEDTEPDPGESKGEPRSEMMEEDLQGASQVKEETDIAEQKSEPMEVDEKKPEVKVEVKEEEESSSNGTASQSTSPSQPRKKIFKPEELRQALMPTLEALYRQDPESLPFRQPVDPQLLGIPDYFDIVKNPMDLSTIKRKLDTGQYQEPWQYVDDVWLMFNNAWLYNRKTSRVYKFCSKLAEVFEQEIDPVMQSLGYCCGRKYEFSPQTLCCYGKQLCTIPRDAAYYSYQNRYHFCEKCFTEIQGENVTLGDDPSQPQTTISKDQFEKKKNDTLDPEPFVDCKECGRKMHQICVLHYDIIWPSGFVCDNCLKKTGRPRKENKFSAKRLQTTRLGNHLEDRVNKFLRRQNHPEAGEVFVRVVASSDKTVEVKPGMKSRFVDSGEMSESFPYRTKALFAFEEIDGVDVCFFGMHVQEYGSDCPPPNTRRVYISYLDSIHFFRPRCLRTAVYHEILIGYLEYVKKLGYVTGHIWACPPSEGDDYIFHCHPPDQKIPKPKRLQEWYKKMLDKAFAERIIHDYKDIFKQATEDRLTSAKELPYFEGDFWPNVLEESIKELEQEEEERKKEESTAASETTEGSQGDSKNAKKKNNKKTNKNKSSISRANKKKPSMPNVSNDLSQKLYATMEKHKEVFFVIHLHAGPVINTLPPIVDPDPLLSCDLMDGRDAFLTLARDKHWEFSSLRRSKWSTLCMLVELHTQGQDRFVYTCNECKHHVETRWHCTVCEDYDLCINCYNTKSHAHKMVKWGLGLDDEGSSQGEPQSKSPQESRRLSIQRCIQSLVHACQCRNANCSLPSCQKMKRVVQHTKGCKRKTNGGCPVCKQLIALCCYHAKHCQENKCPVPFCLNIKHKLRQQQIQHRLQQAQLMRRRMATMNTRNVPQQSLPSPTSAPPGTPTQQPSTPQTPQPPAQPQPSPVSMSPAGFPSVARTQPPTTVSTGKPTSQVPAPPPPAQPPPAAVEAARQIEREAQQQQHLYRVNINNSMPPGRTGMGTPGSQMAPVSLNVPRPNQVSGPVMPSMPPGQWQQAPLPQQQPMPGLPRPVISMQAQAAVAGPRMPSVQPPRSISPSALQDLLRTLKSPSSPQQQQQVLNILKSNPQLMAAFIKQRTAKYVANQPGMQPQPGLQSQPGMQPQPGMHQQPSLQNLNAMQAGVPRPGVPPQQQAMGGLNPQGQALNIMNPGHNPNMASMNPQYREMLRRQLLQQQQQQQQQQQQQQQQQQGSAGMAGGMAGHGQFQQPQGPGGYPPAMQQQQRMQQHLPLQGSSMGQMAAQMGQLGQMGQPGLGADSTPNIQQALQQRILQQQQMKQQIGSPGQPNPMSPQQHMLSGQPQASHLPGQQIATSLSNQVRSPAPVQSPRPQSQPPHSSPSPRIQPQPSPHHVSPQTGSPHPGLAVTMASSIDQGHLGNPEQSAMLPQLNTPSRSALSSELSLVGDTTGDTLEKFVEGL
Histone acetyltransferase p300 (Homo sapiens), sequence (Q09472 whole entry): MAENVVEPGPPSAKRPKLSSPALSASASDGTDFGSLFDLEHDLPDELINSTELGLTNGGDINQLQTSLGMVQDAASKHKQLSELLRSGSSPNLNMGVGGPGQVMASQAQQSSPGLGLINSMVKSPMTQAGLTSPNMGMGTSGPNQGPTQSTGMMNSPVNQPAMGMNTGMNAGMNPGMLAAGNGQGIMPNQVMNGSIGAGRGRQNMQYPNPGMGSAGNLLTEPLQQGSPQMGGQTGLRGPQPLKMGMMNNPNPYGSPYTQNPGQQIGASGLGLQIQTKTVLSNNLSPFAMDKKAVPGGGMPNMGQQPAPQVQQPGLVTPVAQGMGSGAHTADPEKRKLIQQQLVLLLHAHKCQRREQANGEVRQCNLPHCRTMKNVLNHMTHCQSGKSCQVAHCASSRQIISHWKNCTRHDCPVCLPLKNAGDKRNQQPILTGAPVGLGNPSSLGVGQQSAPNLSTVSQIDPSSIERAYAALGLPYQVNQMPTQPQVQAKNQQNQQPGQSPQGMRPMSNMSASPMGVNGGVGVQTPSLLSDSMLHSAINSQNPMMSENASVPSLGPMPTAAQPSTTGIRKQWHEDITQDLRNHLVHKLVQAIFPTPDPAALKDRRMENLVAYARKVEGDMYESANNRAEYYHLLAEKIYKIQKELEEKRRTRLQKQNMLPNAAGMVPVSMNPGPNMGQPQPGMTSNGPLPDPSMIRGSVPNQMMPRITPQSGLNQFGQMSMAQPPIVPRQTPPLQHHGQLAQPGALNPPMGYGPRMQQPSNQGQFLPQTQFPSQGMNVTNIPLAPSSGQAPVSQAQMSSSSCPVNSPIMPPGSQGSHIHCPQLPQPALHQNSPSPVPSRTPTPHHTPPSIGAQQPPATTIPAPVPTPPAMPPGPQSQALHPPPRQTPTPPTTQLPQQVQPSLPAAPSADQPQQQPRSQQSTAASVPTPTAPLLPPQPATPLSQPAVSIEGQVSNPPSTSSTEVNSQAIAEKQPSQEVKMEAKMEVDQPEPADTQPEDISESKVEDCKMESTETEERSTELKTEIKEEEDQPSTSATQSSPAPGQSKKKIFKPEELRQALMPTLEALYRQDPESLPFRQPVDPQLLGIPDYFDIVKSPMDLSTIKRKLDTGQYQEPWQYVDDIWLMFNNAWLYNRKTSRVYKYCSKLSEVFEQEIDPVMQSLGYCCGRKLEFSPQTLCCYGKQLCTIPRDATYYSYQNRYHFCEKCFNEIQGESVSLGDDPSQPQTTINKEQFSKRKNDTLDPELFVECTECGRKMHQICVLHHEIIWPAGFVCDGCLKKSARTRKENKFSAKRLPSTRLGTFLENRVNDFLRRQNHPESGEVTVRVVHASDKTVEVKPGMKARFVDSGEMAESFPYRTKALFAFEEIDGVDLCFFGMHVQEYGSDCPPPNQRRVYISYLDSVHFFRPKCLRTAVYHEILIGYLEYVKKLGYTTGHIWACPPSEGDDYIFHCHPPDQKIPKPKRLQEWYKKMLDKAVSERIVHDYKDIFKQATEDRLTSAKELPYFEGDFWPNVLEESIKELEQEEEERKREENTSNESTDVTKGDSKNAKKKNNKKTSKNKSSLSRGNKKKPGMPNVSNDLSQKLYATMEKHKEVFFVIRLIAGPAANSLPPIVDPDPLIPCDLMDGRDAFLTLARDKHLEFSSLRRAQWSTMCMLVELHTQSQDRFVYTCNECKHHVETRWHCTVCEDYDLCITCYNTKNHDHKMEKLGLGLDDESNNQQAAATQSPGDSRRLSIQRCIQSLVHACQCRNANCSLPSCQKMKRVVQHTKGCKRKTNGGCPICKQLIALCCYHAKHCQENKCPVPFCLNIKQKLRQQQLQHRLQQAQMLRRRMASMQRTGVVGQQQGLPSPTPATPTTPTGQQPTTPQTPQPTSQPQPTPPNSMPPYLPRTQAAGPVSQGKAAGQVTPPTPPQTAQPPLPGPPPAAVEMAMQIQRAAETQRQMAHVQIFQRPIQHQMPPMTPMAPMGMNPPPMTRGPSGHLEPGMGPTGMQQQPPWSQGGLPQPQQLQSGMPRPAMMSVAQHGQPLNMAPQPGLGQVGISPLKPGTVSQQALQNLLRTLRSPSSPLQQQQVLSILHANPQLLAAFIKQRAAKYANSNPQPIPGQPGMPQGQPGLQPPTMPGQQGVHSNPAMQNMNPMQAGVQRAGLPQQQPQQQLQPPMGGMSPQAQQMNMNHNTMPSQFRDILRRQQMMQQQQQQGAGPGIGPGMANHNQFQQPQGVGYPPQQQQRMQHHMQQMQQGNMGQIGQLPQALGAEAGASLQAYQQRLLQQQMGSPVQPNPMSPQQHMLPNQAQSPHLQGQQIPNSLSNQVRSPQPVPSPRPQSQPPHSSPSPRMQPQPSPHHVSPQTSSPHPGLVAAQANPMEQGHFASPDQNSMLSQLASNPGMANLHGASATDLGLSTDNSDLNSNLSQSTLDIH

SMILES: Cc1noc(C)c1-c1ccc2[nH]c(=O)cc(NCc3cccc(Br)c3)c2c1
- Kd [3]: 53 nM
- GI50 (MV4-11): 731 nM

SMILES: Cc1noc(C)c1-c1ccc2[nH]c(=O)cc(N3CCOCC3)c2c1
- Kd [3]: 570 nM

SMILES: Cc1noc(C)c1-c1ccc2c(-c3ccccc3)cc(=O)[nH]c2c1
- Kd [3]: 7400 nM
- IC50 [10]: 3100 nM
- GI50 (MV4-11): 14000 nM

SMILES: Cc1noc(C)c1-c1ccc2[nH]c(=O)cc(NCc3ccc(Cl)cc3)c2c1
- Kd [3]: 210 nM
- GI50 (MV4-11): 1700 nM

SMILES: Cc1noc(C)c1-c1ccc2[nH]c(=O)cc(NCC3CCCCC3)c2c1
- Kd [3]: 250 nM
- GI50 (MV4-11): 3780 nM

SMILES: Cc1noc(C)c1-c1ccc2[nH]c(=O)cc(NCc3cccc(C(F)(F)F)c3)c2c1
- Kd [3]: 220 nM

More lines, main results first:

- AUC(0-t) [1]: 25100 ng·h/mL
- inhibition [2]: > 65%
- Kd [3]: 44 nM
- inhibition (Peregrin (Homo sapiens)): Active
- AUC(0-t) [4]: 178000 ng·h/mL
- inhibition [5]: Active
- Tmax [6]: 1.5 h
- IC50 (Cytochrome P450 2D6): > 30000 nM
- IC50 (Cytochrome P450 3A4): > 30000 nM
- Tmax [7]: 0.5 h
- inhibition [8]: Active
- half-life [9]: 0.202 h
- IC50 [10]: 1100 nM
- IC50 (Cytochrome P450 2C19): > 30000 nM
- half-life [11]: 1.02 h
- half-life [12]: 1.39 h
- Tmax [13]: 2 h
- half-life [15]: 0.412 h
- inhibition [16]: Active
- Cmax [17]: 7770 ng/mL
- Cmax [19]: 289 ng/mL
- half-life [20]: 2 h
- inhibition [21]: > 65%
- IC50 (Cytochrome P450 1A2): > 30000 nM
- AUC(0-t) [22]: 34600 ng·h/mL
- Tmax [23]: 1 h
- half-life [24]: 2.33 h
- GI50 (MV4-11): 595 nM
- IC50 (Cytochrome P450 2C9): 6770 nM
- AUC(0-t) [25]: 755 ng·h/mL
- Cmax [26]: 9340 ng/mL
- Cmax [27]: 60900 ng/mL
SMILES: Cc1noc(C)c1-c1ccc2[nH]c(=O)cc(NCc3ccccc3)c2c1
- inhibition in vivo at 50 mg/kg (Kasumi 1): 60%
- Activity [14]: Non-Toxic
- Activity [18]: Non-Toxic

- Kd [3]: 55 nM
- GI50 (MV4-11): 1660 nM
SMILES: Cc1noc(C)c1-c1ccc2[nH]c(=O)cc(NCc3ccccc3Cl)c2c1

- Kd [3]: 130 nM
SMILES: Cc1noc(C)c1-c1ccc2[nH]c(=O)cc(NCc3ccccc3F)c2c1

- Kd [3]: 210 nM
- GI50 (MV4-11): 3500 nM
SMILES: Cc1noc(C)c1-c1ccc2[nH]c(=O)cc(NCc3ccccc3Br)c2c1
